According to PubChem BioAssay (NCI):
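Cells were grown in 96-well plates and exposed to each compound for 48 hours at five concentrations; endpoints were interpolated linearly between bracketing concentrations, or set to the highest concentration if not reached. GI50 marks 50% less growth. TGI: concentration producing complete growth inhibition.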

Key:
Assay in all cases: NCI-60 cell line screen, 48 h
U251 CNS = system: U251 CNS
NCI-H23 lung = system: NCI-H23 lung
M14 melanoma = system: M14 melanoma
UACC-62 melanoma = system: UACC-62 melanoma
OVCAR-4 ovarian = system: OVCAR-4 ovarian
HOP-62 NSCLC = system: HOP-62 NSCLC
SF-295 CNS = system: SF-295 CNS
SK-OV-3 ovarian = system: SK-OV-3 ovarian
HOP-92 NSCLC = system: HOP-92 NSCLC
OVCAR-8 ovarian = system: OVCAR-8 ovarian
HCT-116 colon = system: HCT-116 colon

Compound | TGI (U251 CNS) [µM] | TGI (NCI-H23 lung) [µM] | TGI (M14 melanoma) [µM] | TGI (UACC-62 melanoma) [µM] | TGI (OVCAR-4 ovarian) [µM] | TGI (HOP-62 NSCLC) [µM] | TGI (SF-295 CNS) [µM] | TGI (SK-OV-3 ovarian) [µM] | TGI (HOP-92 NSCLC) [µM] | TGI (OVCAR-8 ovarian) [µM] | TGI (HCT-116 colon) [µM] | GI50 (NCI-H23 lung) [µM] | GI50 (OVCAR-4 ovarian) [µM] | GI50 (HCT-116 colon) [µM]
CN(C)CCCOc1nc2c(c(=O)n(C)c(=O)n2C)n1C (tested in a mixture with another compound) | > 100 | 97.6 | > 100 | 6.42 | > 100 | > 100 | > 100 | > 100 | > 100 | > 100 | > 100 |  |  | 
O=C(O)CN(CCNC(=O)OCC1c2ccccc2-c2ccccc21)CCNC(=O)OCC1c2ccccc2-c2ccccc21 | 38.4 | 49.6 | 73.4 | 47.5 | 64.4 | 44.7 | 54.7 | 70.6 | 42.7 | 37.2 | 31.9 |  |  | 
CN1C(=O)C2C(=O)N(Cc3ccccc3)CC(=O)N2c2cccnc21 (stereo not drawn) | > 100 | > 100 | > 100 | > 100 | > 100 | > 100 | > 100 | > 100 | > 100 | > 100 | > 100 |  |  | 
OCC1CCCCCCCCCCC12SCCCS2 (stereo not drawn) | > 100 | > 100 | > 100 | > 100 | > 100 | > 100 |  | > 100 | > 100 |  | > 100 |  |  | 
OCc1ccc2[n+](c1)CCC1c3ccccc3NC21 (stereo not drawn) | > 300 | > 300 |  | > 300 |  | > 300 | > 300 | > 300 | > 300 | > 300 | > 300 |  |  | 
Cc1ccc(-c2c(C#N)c(-c3ccccc3)n(NS(=O)(=O)c3ccccc3)c(=O)c2C#N)cc1 | > 100 |  | > 100 | > 100 | > 100 | > 100 | > 100 | > 100 | > 100 | > 100 | > 100 |  |  | 
Cc1cc(N(CCC#N)CCC#N)ccc1/C=N/NC(=O)c1cc(Cl)ccc1O | > 100 | > 100 | > 100 | > 100 | > 100 | > 100 | > 100 | > 100 |  | > 100 | > 100 |  |  | 
O=C(CC(=O)n1nc(-c2ccccc2)c(N=Nc2ccccc2C(=O)O)c1-c1ccccc1)Nc1ccc(Cl)cc1 | > 100 | 93.9 | > 100 | > 100 |  | > 100 |  |  | 42.2 | > 100 | > 100 |  |  | 
C=C(C)C12CC(COC(=O)c3ccccc3)C34OC5(OC1C3C1OC1(CO)C(O)C1(O)C(OC(=O)c3ccccc3)C(C)C(C(C)CCCCCCC5O)C14)O2 (stereo not drawn) | > 74.6 | > 100 | > 100 | > 100 | > 100 |  | > 100 | > 100 | > 100 | > 100 | > 100 |  |  | 
COc1ccc(C(C#N)NNC(=O)c2ccccc2O)cc1OC (stereo not drawn) | > 100 | 28.4 | 46.7 | 0.908 | > 100 | > 100 | > 100 | > 100 |  | > 100 | > 100 |  |  | 
CCOC(=O)C1Cc2[nH]c3ccccc3c2C(C)C1C (stereo not drawn) | 35.1 | 27.3 | 30.7 | 22.7 | 30.9 |  | 42.3 | 45.3 | 32 | 13.4 | 32.6 |  |  | 
Cc1nnc(Nc2ccccc2)o1 | > 100 | > 100 | > 100 | > 100 | > 100 |  | > 100 | > 100 |  | > 100 | > 100 |  |  | 
Nc1cc(CO)cc(Nc2nc3ccc(Cl)cc3c3[nH]c4ccccc4c23)c1 | 23.9 | 40 | 16.7 | 5.55 |  | 27.6 | 15 | 22.2 | 9.11 | 18.5 | 25.4 |  |  | 
NC(C(F)(F)F)(C(F)(F)F)P(=O)(Cc1ccccc1)Cc1ccccc1 | > 100 | > 100 | > 100 | > 100 | > 100 | > 100 | > 100 | > 100 |  | > 100 | > 100 |  |  | 
NC(=O)N/N=C(\Cc1nc2ccc(Cl)cc2[nH]c1=O)C(=O)Nc1ccc(Cl)cc1Cl | > 100 | > 100 | > 100 | > 100 | > 100 |  | > 100 | > 100 |  | > 100 | > 100 |  |  | 
Nc1ccc2nc(-c3ccccn3)c(-c3ccccn3)nc2c1 | > 100 |  | > 100 | > 100 | > 100 |  | > 100 |  | > 100 | > 100 | > 100 |  |  | 
CC(C)=CCOC(=O)C(C)=[N+]=[N-] | > 100 | > 100 |  | > 100 | > 100 | > 100 | > 100 |  |  | > 100 | > 100 |  |  | 
Brc1ccc(CCNCCN2CCCCC2)cc1 | 32.4 | 37 | 29.6 |  | 48.1 | 34.9 | 32.3 | 42 | 23.5 | 30.5 | 24.4 |  |  | 
CC1(C)OCC(COC(=O)C=[N+]=[N-])O1 (stereo not drawn) | > 100 | > 100 |  | > 100 | > 100 | > 100 | > 100 | > 100 | > 100 |  | > 100 |  |  | 
C[C@@]12[C@H]3CC[C@@H]1[C@H](O)C(=O)N2CC3 | > 100 | > 100 | > 100 | > 100 | > 100 | > 100 | > 100 | > 100 | > 100 | > 100 |  |  |  | 
Cc1nc2c(sc(=S)n2-c2ccccc2)c2nc3ncccc3n12 | > 100 | > 100 | > 100 | > 100 |  | 90.3 | > 100 | > 100 | > 100 | > 100 | > 100 |  |  | 

Compound | TGI (U251 CNS) [µM] | TGI (NCI-H23 lung) [µM] | TGI (M14 melanoma) [µM] | TGI (UACC-62 melanoma) [µM] | TGI (OVCAR-4 ovarian) [µM] | TGI (HOP-62 NSCLC) [µM] | TGI (SF-295 CNS) [µM] | TGI (SK-OV-3 ovarian) [µM] | TGI (HOP-92 NSCLC) [µM] | TGI (OVCAR-8 ovarian) [µM] | TGI (HCT-116 colon) [µM] | GI50 (NCI-H23 lung) [µM] | GI50 (OVCAR-4 ovarian) [µM] | GI50 (HCT-116 colon) [µM]
O=C(O)c1c2c(cc3c1CC1(Cc4ccccc4C1)C3)CCC2 | > 100 | > 100 |  | > 100 | > 100 | > 100 | > 100 | > 100 | 52.5 | > 100 |  |  |  | 
O=C1OCc2c1cc1ccc(O)c(OC3OC(CO)C(O)C(O)C3O)c1c2-c1ccc2c(c1)OCO2 (stereo not drawn) | > 100 | > 100 | > 100 | > 100 | > 100 | > 100 | > 100 | > 100 |  | > 100 | > 100 | 47.5 | 56.2 | 39.7
Cc1ccc(C(=O)Nc2ccc(CP(=O)(O)O)cc2CP(=O)(O)O)cc1NC(=O)c1cccc(N)c1 | > 100 | > 100 | > 100 | > 100 | > 100 | > 100 | > 100 | > 100 |  | > 100 | > 100 |  |  | 
CC(C)(C)c1ccc2c(c1)CNCCNCc1cc(C(C)(C)C)ccc1OCC1(CO2)COc2ccc(C(C)(C)C)cc2CNCCNCc2cc(C(C)(C)C)ccc2OC1 | 0.479 | 2.59 | 1.45 | 2.76 | 2.93 | 2.66 | 1.97 |  | 2.58 | 1.45 | 2.99 |  |  | 
CC(O[Si](c1ccccc1)(c1ccccc1)C(C)(C)C)[C@H](NC(=O)OC(C)(C)C)C(=O)O[Si](c1ccccc1)(c1ccccc1)C(C)(C)C (stereo partly drawn) | 31.7 | 26.1 | 29.4 |  | 16.5 | 34.2 | 21.4 | 30 | 23.2 | 33.6 | 23.7 |  |  | 
COC(=O)CC(=O)C[P+](c1ccccc1)(c1ccccc1)c1ccccc1 | > 218 | > 218 |  | > 218 |  | > 218 | > 218 | > 218 | > 218 | > 218 | > 218 |  |  | 
O=C(/C=C/c1ccc(O)c([N+](=O)[O-])c1)CC(=O)/C=C/c1ccc(O)c([N+](=O)[O-])c1 | 55.3 | > 100 | > 100 | > 100 | > 100 | > 100 | > 100 | > 100 |  | 39.6 | > 100 |  |  | 
COc1ccccc1N/C(=C\C(=O)C(=O)NC12CC3CC(CC(C3)C1)C2)c1ccccc1 | > 10 | > 10 | > 10 |  | > 10 | > 10 | > 10 | > 10 |  | > 10 |  |  |  | 
CN1C(=O)N(c2ccccc2)C2(CCN(CC3COc4ccccc4O3)CC2)C1=O (stereo not drawn) | > 100 | > 100 | > 100 | > 100 | > 100 | > 100 | > 100 |  | > 100 | > 100 | > 100 |  |  | 
O=C(Nc1ccc(Br)cc1)c1c(-c2ccccc2)c2ccc(O)cc2oc1=O | > 10 | > 10 | > 10 |  | > 10 | > 10 | > 10 | > 10 | > 10 | > 10 |  |  |  | 
CC1(C)CC(/C=C2/OC(=O)c3ccccc32)=C(C#N)C(=O)O1 | > 100 | > 100 | > 100 | > 100 | > 100 | > 100 | > 100 | > 100 |  | > 100 | > 100 |  |  | 
O=C(O)c1cc2c(cc1CC(Cc1ccc3c(c1)CCC3)C(=O)O)CCC2 (stereo not drawn) | > 100 | > 100 | > 100 |  | > 100 | > 100 | > 100 | > 100 | > 100 | > 100 | > 100 |  |  | 
CC1(Cl)C(=O)NC(=O)N(C2CC(N=[N+]=[N-])C(CO)O2)C1N=[N+]=[N-] (stereo not drawn) | > 100 | > 100 | > 100 | > 100 | > 100 | > 100 | > 100 | > 100 | > 100 | > 100 |  |  |  | 
N=C1CSC2=NC3=C(CCC/C3=C\c3ccccc3)C(c3ccccc3)N12 (stereo not drawn) | 13.6 | 15.6 | 13 | 23 |  | 25.6 | 19.4 | 28.4 |  | 19.5 | 13.2 |  |  | 
Cn1cc2ccccc2c1-c1nc(N)nc(F)n1 | > 100 | > 100 | > 100 |  | > 100 | > 100 | > 100 | > 100 | > 100 | > 100 | > 100 |  |  | 
OCCCCCNc1c2ccccc2nc2ccccc12 | 20.8 | 5.47 | 6.91 | 3.92 | 11.4 | 6.68 | 10.5 | 13.7 |  | 8.72 | 21.1 |  |  | 
COC(=O)C(CCC#N)(CCC#N)C(=O)OC | > 100 | > 100 | > 100 | > 100 |  | > 100 | > 100 | > 100 |  | > 100 | > 100 |  |  | 
COc1cc2c(cc1OC)C1=Cc3cc(OC)c(OC)cc3C(C)N1C=C2 (stereo not drawn) | > 100 | > 100 | > 100 | > 100 |  | > 100 | > 100 | > 100 | > 100 | > 100 | > 100 |  |  | 
CC(=O)OCC(C)C1=C(O)C(=O)C2(C)C/C=C(/C)CC/C=C(\C)CCC(O)C(C)CCC12 (stereo not drawn) | 30.8 | 36.6 | 33.8 | 36.8 | 37 | 32.8 | 29.9 |  | 33.7 | 46.6 | 32.8 |  |  | 
S=C(N/N=C\C=N/NC(=S)N1CCCCC1)N1CCCCC1 | > 100 | > 40.1 | > 100 | > 100 |  | > 21.1 | > 77.8 | > 100 | 45.8 | > 100 | > 100 |  |  | 
COc1cc(/C=C2/C(=O)N(C(=O)c3ccccc3O)N=C2C)cc(OC)c1OC | > 100 | > 21.8 | > 100 | 16.9 | > 100 |  | > 100 | > 100 | > 83.9 | > 100 | > 29 |  |  | 
